According to ChEMBL document CHEMBL6153103, “Novel Bioorthogonal Theranostic Scaffold Enables on-Target Drug Release and Real Time Monitoring In Vivo” (J Med Chem, 2025):
Calls of active or inactive are those of the source. The calls are words filed in the database; no cut-off is given here.

What was measured:
[1] = system: A549; test: Cytotoxicity against human A549 cells assessed as inhibition of cell proliferation upto 20 uM incubated for 72 hrs by CCK-8 assay; assay type: functional, cell-based
[2] = system: A549; test: Cytotoxicity against human A549 cells assessed as cell viability incubated for 72 hrs by CCK-8 assay; assay type: functional, cell-based; conditions: A549, 72 h
[3] = system: A549; test: Cytotoxicity against human A549 cells assessed as inhibition of cell proliferation incubated for 72 hrs in presence of 15 uM 4-(6-methyl-1,2,4,5-tetrazin-3-yl)benzyl 3-(2-hydroxyethoxy)-2,3-dihydrophenanthro[9,10-b][1,4]dioxine-7-carboxylate by CCK-8 assay; assay type: functional, cell-based; conditions: A549, 72 h
[4] = Cytotoxicity against human HEK293T cells assessed as inhibition of cell proliferation incubated for 72 hrs 15 uM of 4-(6-methyl-1,2,4,5-tetrazin-3-yl)benzyl 3-(2-hydroxyethoxy)-2,3-dihydrophenanthro[9,10-b][1,4]dioxine-7-carboxylate by CCK-8 assay; assay type: toxicity, cell-based, HEK-293T
[5] = Cytotoxicity against human HEK293T cells assessed as inhibition of cell proliferation incubated for 72 hrs 15 uM of (4-((2-((10-(((4-(6-methyl-1,2,4,5-tetrazin-3-yl)benzyl)oxy)carbonyl)-2,3-dihydrophenanthro[9,10-b][1,4]dioxin-2-yl)oxy)ethoxy)carbonyl)phenyl)boronic acid by CCK-8 assay; assay type: toxicity, cell-based, HEK-293T
[6] = system: HeLa; test: Cytotoxicity against human HeLa cells assessed as inhibition of cell proliferation incubated for 72 hrs 15 uM of 4-(6-methyl-1,2,4,5-tetrazin-3-yl)benzyl 3-(2-hydroxyethoxy)-2,3-dihydrophenanthro[9,10-b][1,4]dioxine-7-carboxylate by CCK-8 assay; assay type: functional, cell-based
[7] = system: HeLa; test: Cytotoxicity against human HeLa cells assessed as inhibition of cell proliferation incubated for 72 hrs 15 uM of (4-((2-((10-(((4-(6-methyl-1,2,4,5-tetrazin-3-yl)benzyl)oxy)carbonyl)-2,3-dihydrophenanthro[9,10-b][1,4]dioxin-2-yl)oxy)ethoxy)carbonyl)phenyl)boronic acid by CCK-8 assay; assay type: functional, cell-based
[8] = Prodrug release in human A549 cells xenografted in BALB/c nude mouse assessed as DOX release by measuring change in green fluorescence intensity in tumor at 5 mg/kg, ip administered for 1 hr by DAPI staining based confocal microscopic analysis; assay type: ADME, organism-based; conditions: in vivo
[9] = system: A549; test: Cytotoxicity against human A549 cells assessed as inhibition of cell proliferation incubated for 72 hrs in presence of 10 uM 4-(6-methyl-1,2,4,5-tetrazin-3-yl)benzyl 3-(2-hydroxyethoxy)-2,3-dihydrophenanthro[9,10-b][1,4]dioxine-7-carboxylate by CCK-8 assay; assay type: functional, cell-based; conditions: A549, 72 h
[10] = Drug uptake in human HeLa cells assessed as increase in blue fluorescence intensity at 100 uM incubated for 1 hr by confocal fluorescence microscopic analysis; assay type: ADME, cell-based
[11] = system: A549; test: Cytotoxicity against human A549 cells assessed as inhibition of cell proliferation incubated for 72 hrs by CCK-8 assay; assay type: functional, cell-based; conditions: A549, 72 h
[12] = system: HeLa; test: Cytotoxicity against human HeLa cells assessed as inhibition of cell proliferation incubated for 72 hrs by CCK-8 assay; assay type: functional, cell-based
[13] = Cytotoxicity against human HEK293T cells assessed as inhibition of cell proliferation incubated for 72 hrs by CCK-8 assay; assay type: toxicity, cell-based, HEK-293T
[14] = Prodrug release in human A549 cells assessed as DOX release by measuring increase in fluorescence intensity at 100 uM measured after 2 hrs by confocal microscopy; assay type: ADME, cell-based; conditions: a549, 2 h
[15] = Drug uptake in human HEK293T cells assessed as increase in blue fluorescence intensity at 100 uM incubated for 1 hr by confocal fluorescence microscopic analysis; assay type: ADME, cell-based; conditions: hek-293t
[16] = Prodrug activation in human A549 cells xenografted in BALB/c nude mouse assessed as blue fluorescence intensity in tumor at 5 mg/kg, ip administered for 1 hr by confocal microscopic analysis; assay type: organism-based; conditions: in vivo
[17] = Prodrug release in human A549 cells assessed as DOX release by measuring increase in fluorescence intensity at 50 uM measured after 2 hrs by confocal microscopy; assay type: ADME, cell-based; conditions: a549, 2 h
[18] = system: A549; test: Cytotoxicity against human A549 cells assessed as inhibition of cell proliferation incubated for 72 hrs in presence of 80 uM 4-(6-methyl-1,2,4,5-tetrazin-3-yl)benzyl 3-(2-hydroxyethoxy)-2,3-dihydrophenanthro[9,10-b][1,4]dioxine-7-carboxylate by CCK-8 assay; assay type: functional, cell-based; conditions: A549, 72 h
[19] = system: A549; test: Cytotoxicity against human A549 cells assessed as inhibition of cell proliferation incubated for 72 hrs in presence of 60 uM 4-(6-methyl-1,2,4,5-tetrazin-3-yl)benzyl 3-(2-hydroxyethoxy)-2,3-dihydrophenanthro[9,10-b][1,4]dioxine-7-carboxylate by CCK-8 assay; assay type: functional, cell-based; conditions: A549, 72 h

Q: What does the source list for `Cc1nnc(-c2ccc(COC(=O)c3ccc4c5c(c6ccccc6c4c3)OCC(OCCO)O5)cc2)c2c1CCCCCC2` (centres undefined)?
A: Activity [1]: Active; EC50 [2]: > 50000 nM

Q: For `COc1cccc2c1C(=O)c1c(O)c3c(c(O)c1C2=O)C[C@@](O)(C(=O)CO)C[C@@H]3O[C@H]1C[C@H](NC(=O)OC2/C=C/CCCCC2)[C@H](O)[C@H](C)O1` (some centres undefined), which IC50 [3] is on record?
A: The IC50 was 58 nM.

Q: And the IC50 at 72 h [4]?
A: Its IC50 at 72 h is 126 nM.

Q: What about the IC50 at 72 h [5] of the same molecule?
A: Its IC50 at 72 h is 145 nM.

Q: And the IC50 [6]?
A: The IC50 was 59 nM.

Q: And the IC50 [7]?
A: The IC50 was 30 nM.

Q: What about the Drug metabolism [8] of the same molecule?
A: The Drug metabolism was “metabolite_detected”.

Q: And the IC50 [9]?
A: The IC50 was 67 nM.

Q: And the Drug uptake [10]?
A: Its Drug uptake is “Not_active”.

Q: And the IC50 [11]?
A: The IC50 was 537 nM.

Q: What about the IC50 [12] of the same molecule?
A: The IC50 was 989 nM.

Q: And the IC50 at 72 h [13]?
A: Its IC50 at 72 h is 1150 nM.

Q: What about the Drug metabolism [14] of the same molecule?
A: Its Drug metabolism is “metabolite_detected”.

Q: What about the Drug uptake [15] of the same molecule?
A: The Drug uptake was “Not_active”.

Q: What about the Drug metabolism [16] of the same molecule?
A: Its Drug metabolism is “metabolite_notdetected”.

Q: Which IC50 [12] does the source give for `COc1cccc2c1C(=O)c1c(O)c3c(c(O)c1C2=O)C[C@@](O)(C(=O)CO)C[C@@H]3O[C@H]1C[C@H](N)[C@H](O)[C@H](C)O1` [DOXORUBICIN] here?
A: The IC50 was 14 nM.

Q: Which Activity [1] does the source give for `Cc1nnc(-c2ccc(COC(=O)c3ccc4c5c(c6ccccc6c4c3)OCC(OCCO)O5)cc2)nn1` (centres undefined) here?
A: Its Activity is “Active”.

Q: And the Drug uptake [10]?
A: Its Drug uptake is “Not_active”.

Q: And the EC50 [2]?
A: The EC50 was > 50000 nM.

Q: And the Drug uptake [15]?
A: The Drug uptake was “Not_active”.

Q: And the Drug metabolism [17]?
A: The Drug metabolism was “metabolite_detected”.

Q: With `CO[C@@]12[C@H](COC(N)=O)C3=C(C(=O)C(C)=C(N)C3=O)N1C[C@@H]1N[C@@H]12` [MITOMYCIN] as the molecule, how does the IC50 [11] read?
A: The IC50 was 30 nM.

Q: Which results are given for `[C-]#[N+]CCCOC(=O)N1[C@H]2[C@@H]1CN1C3=C(C(=O)C(N)=C(C)C3=O)[C@@H](COC(N)=O)[C@@]21OC`?
A: IC50 [9]: 313 nM; IC50 [11]: 359 nM; IC50 [18]: 239 nM; IC50 [19]: 239 nM

Q: Which Drug metabolism [8] does the source give for `Cc1nnc(-c2ccc(COC(=O)c3ccc4c5c(c6ccccc6c4c3)OCC(OCCOC(=O)c3ccc(B(O)O)cc3)O5)cc2)nn1` (centres undefined) here?
A: Its Drug metabolism is “metabolite_detected”.

Q: And the Drug metabolism [16]?
A: Its Drug metabolism is “metabolite_notdetected”.
